Results published in patent publication US5077292A, “(2-imidazolin-2-ylamino) tetrahydroquinoxalines and methods for using same” (priority 1989, dated 1991).

How the values were obtained:
[1] = system: Alpha 3 Adrenergic Receptors; assay: Rabbit Saphenous Vein: Alpha 3 Adrenergic Receptors; format: cell-based, albino rabbit; conditions: rabbit saphenous vein rings, 37° C., field stimulated; n = number of test runs
Protocol: (§1) The tetrahydroquinoxalines produced in Examples 1 to 3 were tested for activity using the following in vitro methods.
Rabbit Saphenous Vein: Alpha 3 Adrenergic Receptors
Thoracic aorta and saphenous vein specimens were obtained from albino rabbits that were killed by CO2 inhalation. The aorta and saphenous vein were each cut into 3 mm rings. Tissues were placed in Krebs-Hensleit solution of the following composition (millimolar): NaCl 119; KCl 4.7; MgSO4 1.5, KH2 PO4 1.2; CaCl2 2.5; NaHCO3 25 and glucose 11.0. The solution also contained cocaine (0.1 millimolar) to block neuronal uptake and EDTA (30 micromolar) and ascorbic acid (5 micromolar) to prevent oxidation of the tetrahydroquinoxaline being tested. Tissues were hung in 10 ml organ baths and tension was measured via Grass FT03 force-displacement transducers. Resting tension was 1 g and 2 g for the saphenous vein and aorta, respectively. The solution was gassed with 95% O2 and 5% CO2 and maintained at 37° C. Tissues were allowed to equilibrate for 2 hours before stimulation and the cumulative addition of the tetrahydroquinoxaline being treated was started. Tissue stimulation was performed as with the rabbit vas deferens, described above. The contractions of the tissue were recorded isometrically as for the rabbit vas deferens assay. […]

[2] = system: Alpha 1 Adrenergic Receptors; assay: Rabbit Aorta: Alpha 1 Adrenergic Receptors; format: cell-based, albino rabbit; conditions: rabbit aorta rings, 37° C., field stimulated; n = number of test runs
Protocol: as §1
Rabbit Aorta: Alpha 1 Adrenergic Receptors
Thoracic aorta and saphenous vein specimens were obtained from albino rabbits that were killed by CO2 inhalation. The aorta and saphenous vein were each cut into 3 mm rings. Tissues were placed in Krebs-Hensleit solution of the following composition (millimolar): NaCl 119; KCl 4.7; MgSO4 1.5, KH2 PO4 1.2; CaCl2 2.5; NaHCO3 25 and glucose 11.0. The solution also contained cocaine (0.1 millimolar) to block neuronal uptake and EDTA (30 micromolar) and ascorbic acid (5 micromolar) to prevent oxidation of the tetrahydroquinoxaline being tested. Tissues were hung in 10 ml organ baths and tension was measured via Grass FT03 force-displacement transducers. Resting tension was 1 g and 2 g for the saphenous vein and aorta, respectively. The solution was gassed with 95% O2 and 5% CO2 and maintained at 37° C. Tissues were allowed to equilibrate for 2 hours before stimulation and the cumulative addition of the tetrahydroquinoxaline being treated was started. Tissue stimulation was performed as with the rabbit vas deferens, described above. The contractions of the tissue were recorded isometrically as for the rabbit vas deferens assay. Cumulative concentration response curves were obtained and the EC50 valve developed for each tetrahydroquinoxaline tested in a manner similar to that for the rabbit vas deferens assay.

[3] = system: intraocular pressure; assay: effect on intraocular pressure, topical unilateral administration to rabbit eye; format: in vivo, New Zealand white rabbit; conditions: 0.1% (W/V); for Difference In Intraocular Pressure, Initial Effect On Treated Eye / Difference In Intraocular Pressure, Maximum Effect on Treated Eye / Difference In Intraocular Pressure, Maximum Effect On Untreated Eye: single 50 micro liter drop, N.S. = not statistically significant; for Difference In Intraocular Pressure, Maximum Effect On Untreated Eye: untreated (contralateral) eye; for effect on intraocular pressure in the treated eye (in words): treated rabbit eye
Protocol: The three (3) tetrahydroquinoxaline derivatives produced in accordance with Examples 1 to 3 were tested to determine what effect, if any, these materials have on intraocular pressure.
Each of these materials was dissolved in distilled water at a concentration of 0.1% (W/V). Each of these solutions was administered topically and unilaterally to one eye of a drug-naive, unanesthetized New Zealand white rabbit in a single 50 micro liter drop. The contralateral eye received an equal volume of saline prior to determining the intraocular pressure after the mixture was administered. Also, approximately 10 micro liters of 0.5% (W/V) proparacaine (topical anesthetic) was applied to the corneas of each of the rabbits before determining intraocular pressure. As a control test, six (6) other drug-naive, unanesthetized New Zealand white rabbits were treated and tested as described above except that no tetrahydroquinoxaline derivative was included in the solutions administered to the eyes.
The intraocular pressure was determined in both eyes of each rabbit before and after the solutions were administered. Such intraocular pressure determinations were made in the conventional manner using conventional equipment.

[4] = target: T1, Alpha 2 Adrenergic Receptors (Oryctolagus cuniculus, UniProt Q5ZQK3); assay: Rabbit Vas Deferens: Alpha 2 Adrenergic Receptors; format: cell-based, New Zealand white rabbit; conditions: 35° C., field stimulated, 50% reduction in response height, n = number of test runs
T1 construct: from tissue; host or cells: New Zealand white rabbit vas deferens, prostatic end, field stimulated
T1 sequence (Q5ZQK3 1-451): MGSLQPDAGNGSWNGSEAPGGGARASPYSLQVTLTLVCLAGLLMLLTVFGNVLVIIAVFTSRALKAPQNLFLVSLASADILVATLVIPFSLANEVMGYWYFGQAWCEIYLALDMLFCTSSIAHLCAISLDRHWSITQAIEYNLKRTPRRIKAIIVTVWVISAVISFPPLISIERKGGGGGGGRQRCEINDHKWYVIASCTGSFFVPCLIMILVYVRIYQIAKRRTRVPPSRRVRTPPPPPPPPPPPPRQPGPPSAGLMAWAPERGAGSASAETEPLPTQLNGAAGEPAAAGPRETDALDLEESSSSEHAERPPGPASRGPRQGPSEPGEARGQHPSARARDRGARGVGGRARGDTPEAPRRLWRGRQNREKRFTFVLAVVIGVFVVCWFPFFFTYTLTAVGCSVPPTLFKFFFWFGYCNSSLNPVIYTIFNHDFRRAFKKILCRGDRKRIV
Protocol: as §1
Rabbit Vas Deferens: Alpha 2 Adrenergic Receptors
New Zealand white rabbits (2-3 kg) were killed by CO2 inhalation and the vasa deferentia removed. The prostatic ends of the vasa deferentia (2-3 cm lengths) were mounted between platinum ring electrodes in 9 ml organ baths and bathed in Krebs bicarbonate solution of the following composition (millimolar): NaCl 118.0; KCl 4.7; CaCl2 2.5; MgSO4 1.2; KH2 PO4 1.2; glucose 11.0; NaHCO3 25.0; which solution was maintained at 35° C. and bubbled with 95% O2 and 5% CO2. The initial tension of the vas deferens was 0.5 g. The tissues were left to equilibrate for 30 minutes before stimulation was started. Vasa were then field stimulated (0.1 Hz, 2 ms pulse width at 90 mA) using a square wave stimulator (WPI A310 Accupulser with A385 stimulus). […] Cumulative concentration-response curves were obtained for the tetrahydroquinoxaline being tested with a 4 minute contact time at each concentration. The reduction in response height was measured and expressed as a percentage of the height of the response before the addition of tetrahydroquinxoaline. Concentration response curves for each of tetrahydroquinoxalines were plotted. The effective concentration required for a 50% reduction in response height, expressed as EC50, were obtained from these curves and are set forth below.

EC50 [1] | EC50 [2] | Structure (SMILES) | Difference In Intraocular Pressure, Initial Effect On Treated Eye [3] | Difference In Intraocular Pressure, Maximum Effect on Treated Eye [3] | Difference In Intraocular Pressure, Maximum Effect On Untreated Eye [3] | effect on intraocular pressure in the treated eye (in words) [3] | effect on intraocular pressure in the untreated eye (in words) ([3]; untreated rabbit eye) | EC50 [4]
581 ± 29 nM | 6750 ± 116 nM | CC1CNc2c(ccc(NC3=NCCN3)c2Br)N1 (racemic) [Example 2, (±)2-Methyl-5-bromo-6-(2-imidazolin-2-ylamino)-1,2,3,4-tetrahydroquinoxaline] | N.S. | -15.1 ± 3.3% | -8.6 ± 2.4% | effective to reduce intraocular pressure in the treated rabbit eye | reducing the intraocular pressure in the untreated rabbit eye | 35.3 ± 3.9 nM
 | 1060 ± 271 nM | CC1CNc2ccc(NC3=NCCN3)c(Br)c2N1 (racemic) [Example 3, (±) 3-Methyl-5-bromo-6-(2-imidazolin-2-ylamino)-1,2,3,4-tetrahydroquinoxaline] | N.S. | -12.5 ± 2.2% | N.S. | effective to reduce intraocular pressure in the treated rabbit eye |  | 21.3 ± 3 nM
